Broadly, the EC50 is the concentration at which the effect is half-maximal. A high value points to weaker potency. What is called CC50 is the concentration giving 50% cytotoxicity. A low value points to greater toxicity to the cells.

Experimental findings from US10646469B2, “Substituted indole derivatives as dengue viral replication inhibitors” (Janssen Pharmaceuticals, Inc., priority 2016, dated 2020) are described below.

One data set has as its system DENV-2 16681 strain. Nature of the data set: DENV-2 antiviral assay (eGFP-labeled virus in Vero cells). It counts as cell-based, Dengue virus. As to conditions: DENV-2 16681 eGFP, MOI 0.5, 3 days. The protocol:
The antiviral activity of all the compounds of the invention was tested against the DENV-2 16681 strain which was labeled with enhanced green fluorescent protein (eGPF). The culture medium consists of minimal essential medium supplemented with 2% of heat-inactivated fetal calf serum, 0.04% gentamycin (50 mg/mL) and 2 mM of L-glutamine. Vero cells, obtained from ECACC, were suspended in culture medium and 25 μL was added to 384-well plates (2500 cells/well), which already contain the antiviral compounds. Typically, these plates contain a 5-fold serial dilution of 9 dilution steps of the test compound at 200 times the final concentration in 100% DMSO (200 nL). […] Finally, each plate contains wells which are assigned as virus controls (containing cells and virus in the absence of compound), cell controls (containing cells in the absence of virus and compound) and medium controls (containing medium in the absence of cells, virus and compounds). To the wells assigned as medium control, 25 μL of culture medium was added instead of Vero cells. Once the cells were added to the plates, the plates were incubated for 30 minutes at room temperature to allow the cells to distribute evenly within the wells. Next, the plates were incubated in a fully humidified incubator (37° C., 5% CO2) until the next day. Then, DENV-2 strain 16681, labeled with eGFP, was added at a multiplicity of infection (MOI) of 0.5. Therefore, 15 μL of virus suspension was added to all the wells containing test compound and to the wells assigned as virus control. In parallel, 15 μL of culture medium was added to the medium and cell controls. Next, the plates were incubated for 3 days in a fully humidified incubator (37° C., 5% CO2). At the day of the read out, the eGFP fluorescence was measured using an automated fluorescence microscope at 488 nm (blue laser). Using an in-house LIMS system, inhibition dose response curves for each compound were calculated and the half maximal effective concentration (EC50) was determined. Therefore, the percent inhibition (I) for every test concentration is calculated using the following formula: I=100*([…])/(SVC−SCC); ST, SCC and SVC are the amount of eGFP signal in the test compound, cell control and virus control wells, respectively. The EC50 represents the concentration of a compound at which the virus replication is inhibited with 50%, as measured by a 50% reduction of the eGFP fluorescent intensity compared to the virus control. The EC50 is calculated using linear interpolation (Table 1).

A short description of data set [1]: Cytotoxicity in RT-qPCR assay (Cp of housekeeping gene β-actin). It is filed as cell-based. As to conditions: African green monkey. The protocol:
(§1) The antiviral activity of the compounds of the invention was tested against DENV-1 strain TC974 #666 (NCPV), DENV-2 strain 16681, DENV-3 strain H87 (NCPV) and DENV-4 strain H241 (NCPV) in a RT-qPCR assay. Therefore, Vero cells were infected with either DENV-1, or -2, or -3, or -4 in the presence or absence of test compounds. At day 3 post-infection, the cells were lysed and cell lysates were used to prepare cDNA of both a viral target (the 3′UTR of DENV; Table 2) and cellular reference gene (β-actin, Table 2). Subsequently, a duplex real time PCR was performed on a Lightcycler480 instrument. The generated Cp value is inversely proportional to the amount of RNA expression of these targets. Inhibition of DENV replication by a test compound results in a shift of Cp's for the 3′UTR gene. On the other hand, if a test compound is toxic to the cells, a similar effect on β-actin expression will be observed. The comparative ΔΔCp method is used to calculate EC50, which is based on the relative gene expression of the target gene (3′UTR) normalized with the cellular housekeeping gene (β-actin). In addition, CC50 values are determined based on the Cp values acquired for the housekeeping gene β-actin.
(§2) The culture medium consisted of minimal essential medium supplemented with 2% of heat-inactivated fetal calf serum, 0.04% gentamycin (50 mg/mL) and 2 mM of L-glutamine. Vero cells, obtained from ECACC, were suspended in culture medium and 75 μL/well was added in 96-well plates (10000 cells/well), which already contain the antiviral compounds. […] In addition, each plate contains wells which are assigned as virus controls (containing cells and virus in the absence of compound) and cell controls (containing cells in the absence of virus and compound). Once the cells were added in the plates, the plates were incubated in a fully humidified incubator (37° C., 5% CO2) until the next day. Dengue viruses serotype-1, 2, 3 and 4 were diluted in order to obtain a Cp of ˜22-24 in the assay. Therefore, 25 μL of virus suspension was added to all the wells containing test compound and to the wells assigned as virus control. In parallel, 25 μL of culture medium was added to the cell controls. Next, the plates were incubated for 3 days in a fully humidified incubator (37° C., 5% CO2). After 3 days, the supernatant was removed from the wells and the cells were washed twice with ice-cold PBS (˜100 μL). The cell pellets within the 96-well plates were stored at −80° C. for at least 1 day. Next, RNA was extracted using the Cells-to-CT™ lysis kit, according to the manufacturer's guideline (Life Technologies). The cell lysates can be stored at −80° C. or immediately used in the reverse transcription step.
(§3) Using the LightCycler software and an in-house LIMS system, dose response curves for each compound were calculated and the half maximal effective concentration (EC50) and the half maximal cytotoxic concentration (CC50) were determined (Tables 5-8).
On the technique in general: Quantitative PCR measures a nucleic acid by following its amplification.

Another data set relates to DENV-1 strain TC974 #666. Nature of the data set: Tetravalent RT-qPCR assay, serotype 1. It counts as cell-based. As to conditions: Dengue virus, DENV1, 72 h; RT-qPCR serotype 1 TC974#666, Protocol A, Vero cells, day 3. The protocol: as §1, §2
(§4) In preparation of the reverse transcription step, mix A (table 3A) was prepared and 7.57 μL/well was dispensed in a 96-well plate. After addition of 5 μL of the cell lysates, a five minute denaturation step at 75° C. was performed (table 3B). Afterwards, 7.43 μL of mix B was added (table 3C) and the reverse transcription step was initiated (table 3D) to generate cDNA.
(§5) Finally, a RT-qPCR mix was prepared, mix C (table 4A), and 22.02 μL/well was dispensed in 96-well LightCycler qPCR plates to which 3 μL of cDNA was added and the qPCR was performed according to the conditions in table 4B on a LightCycler 480.
as §3

The test system of a further data set is DENV-4 strain H241. Put plainly: Tetravalent RT-qPCR assay, serotype 4. It counts as cell-based. Conditions: Dengue virus, DENV4, 72 h; RT-qPCR serotype 4 H241, Protocol A, Vero cells, day 3. The protocol:
as §1, §2, §4, §5, §3

The next data set has as its system DENV-3 strain H87. Nature of the data set: Tetravalent RT-qPCR assay, serotype 3. It counts as cell-based. As to conditions: Dengue virus, DENV3, 72 h; RT-qPCR serotype 3 H87, Protocol A, Vero cells, day 3. The protocol: as §1, §2, §4, §5, §3
The next data set has as its system Vero cells. Nature of the data set: Toxicity on the same plates (ATPlite cell viability). Conditions: Vero cells, same plates as DENV-2 antiviral assay.
The test system of a further data set is DENV-2 strain 16681. Nature of the data set: Tetravalent RT-qPCR assay, serotype 2. It is filed as cell-based. Conditions: Dengue virus, DENV2, 72 h; RT-qPCR serotype 2 16681, Protocol A, Vero cells, day 3. The protocol: as §1, §2, §4, §5, §3
Where [2] appears, read: RT-qPCR serotype 1 TC974#666, Protocol A.
Setting [3] is: RT-qPCR serotype 2 16681, Protocol A.
Setting [4] is: RT-qPCR serotype 3 H87, Protocol A.
[5] abbreviates: RT-qPCR serotype 4 H241, Protocol A.

As to `COc1cc(NC(C(=O)c2c[nH]c3c(C)cc(OC(F)(F)F)cc23)c2ccc(F)cc2OC)cc(OCCO)c1` (single isomer, unassigned) [Compound 8A, 2-(4-fluoro-2-methoxyphenyl)-2-((3-(2-hydroxyethoxy)-5-methoxyphenyl)amino)-1-(7-methyl-5-(trifluoromethoxy)-1H-indol-3-yl)ethanone], the EC50 in the data set on DENV-2 16681 strain amounted to 0.35 nM; with DENV-1 strain TC974 #666, 0.71 nM; in the data set on DENV-4 strain H241, 48 nM; in the data set with DENV-3 strain H87 it was 5.8 nM; in the data set with DENV-2 strain 16681, 0.31 nM. Besides, the CC50 at 3 days in data set [1] (setting [2]) is 2100 nM; in data set [1] (setting [3]), 3700 nM; in data set [1] (setting [4]), greater than 2400 nM; in data set [1] (setting [5]), 2600 nM. The same compound came in with a CC50 with Vero cells of 2900 nM.
For the compound `COc1cc(NC(C(=O)c2c[nH]c3cc(OC)c(OC(F)(F)F)cc23)c2ccc(F)cc2OC)cc(OCCO)c1` (single isomer, unassigned) [Compound 6A, 2-(4-fluoro-2-methoxyphenyl)-2-((3-(2-hydroxyethoxy)-5-methoxyphenyl)amino)-1-(6-methoxy-5-(trifluoromethoxy)-1H-indol-3-yl)ethanone], the concentration for a half-maximal effect (EC50) in the data set on DENV-2 16681 strain came out at 0.33 nM; with DENV-1 strain TC974 #666, 2.6 nM; with DENV-4 strain H241, 78 nM; in the data set on DENV-3 strain H87, 12 nM; with DENV-2 strain 16681, 0.55 nM. The CC50 at 3 days was greater than 2100 nM in data set [1] (setting [2]), 3900 nM in data set [1] (setting [3]), greater than 2500 nM in data set [1] (setting [4]) and 1500 nM in data set [1] (setting [5]). For the same compound, in the data set on Vero cells, the CC50 was greater than 2500 nM.
Turning to `COc1cc(NC(C(=O)c2c[nH]c3cc(F)c(C(F)(F)F)cc23)c2ccc(F)cc2OC)cc(OCCO)c1` (single isomer, unassigned) [Compound 3A, 2-(4-fluoro-2-methoxyphenyl)-1-(6-fluoro-5-(trifluoromethyl)-1H-indol-3-yl)-2-((3-(2-hydroxyethoxy)-5-methoxyphenyl)amino)ethanone], the EC50 was 0.47 nM with DENV-2 16681 strain; 2.1 nM with DENV-1 strain TC974 #666; 62 nM with DENV-4 strain H241; 18 nM in the data set on DENV-3 strain H87; 0.46 nM with DENV-2 strain 16681. Moreover, the CC50 at 3 days in data set [1] (setting [2]) is greater than 2500 nM; in data set [1] (setting [3]) it was 2600 nM; in data set [1] (setting [4]), greater than 2500 nM; in data set [1] (setting [5]) it was greater than 2500 nM. The compound further showed a CC50 with Vero cells of 2400 nM.
For the compound `COc1cc(NC(C(=O)c2c[nH]c3cc(F)c(OC(F)(F)F)cc23)c2ccc(Cl)cc2OC)cc(OCCO)c1` (single isomer, unassigned) [Compound 15B, 2-(4-chloro-2-methoxyphenyl)-1-(6-fluoro-5-(trifluoromethoxy)-1H-indol-3-yl)-2-((3-(2-hydroxyethoxy)-5-methoxyphenyl)amino)ethanone], the EC50 in the data set on DENV-2 16681 strain is 0.29 nM; in the data set with DENV-1 strain TC974 #666, 0.46 nM; with DENV-4 strain H241 it was 31 nM; with DENV-3 strain H87 it was 3.2 nM; with DENV-2 strain 16681, 0.15 nM. Also, the CC50 at 3 days in data set [1] (setting [2]) is 1500 nM; in data set [1] (setting [3]), greater than 2100 nM; in data set [1] (setting [4]), greater than 2400 nM; in data set [1] (setting [5]), 1600 nM. This compound returned a CC50 with Vero cells of 2600 nM.
Regarding `COc1cc(NC(C(=O)c2c[nH]c3cc(OC)c(OC(F)(F)F)cc23)c2ccc(Cl)cc2OC)cc(OCCO)c1` (single isomer, unassigned) [Compound 14A, 2-(4-chloro-2-methoxyphenyl)-2-((3-(2-hydroxyethoxy)-5-methoxyphenyl)amino)-1-(6-methoxy-5-(trifluoromethoxy)-1H-indol-3-yl)ethanone], the EC50 in the data set with DENV-2 16681 strain is 0.17 nM; in the data set with DENV-1 strain TC974 #666, 0.92 nM; in the data set on DENV-4 strain H241 it was 25 nM; in the data set on DENV-3 strain H87 it was 5.1 nM; in the data set with DENV-2 strain 16681, 0.17 nM. Moreover, the CC50 at 3 days in data set [1] (setting [2]) is greater than 2100 nM; in data set [1] (setting [3]), 3800 nM; in data set [1] (setting [4]) it was greater than 2300 nM; in data set [1] (setting [5]), 1600 nM. Besides, the CC50 with Vero cells is 2500 nM.
Take `COc1cc(NC(C(=O)c2c[nH]c3ccc(OC(F)(F)F)cc23)c2ccc(F)cc2OC)cc(OCCO)c1` (single isomer, unassigned) [Compound 5B, 2-(4-fluoro-2-methoxyphenyl)-2-((3-(2-hydroxyethoxy)-5-methoxyphenyl)amino)-1-(5-(trifluoromethoxy)-1H-indol-3-yl)ethanone]: the EC50 in the data set on DENV-2 16681 strain amounted to 0.3 nM; with DENV-1 strain TC974 #666 it was 0.77 nM; with DENV-4 strain H241, 50 nM; in the data set with DENV-3 strain H87, 6 nM; in the data set on DENV-2 strain 16681, 0.36 nM. The CC50 at 3 days in data set [1] (setting [2]) was greater than 2500 nM; in data set [1] (setting [3]), 3200 nM; in data set [1] (setting [4]) it was greater than 2500 nM; in data set [1] (setting [5]) it was 2400 nM. In addition, the CC50 in the data set on Vero cells came out at 3300 nM.
As to `COc1cc(NC(C(=O)c2c[nH]c3c(C)cc(C(F)(F)F)cc23)c2ccc(Cl)cc2OC)cc(OCCO)c1` (single isomer, unassigned) [Compound 12A, 2-(4-chloro-2-methoxyphenyl)-2-((3-(2-hydroxyethoxy)-5-methoxyphenyl)amino)-1-(7-methyl-5-(trifluoromethyl)-1H-indol-3-yl)ethanone], the EC50 turned out to be 0.16 nM in the data set with DENV-2 16681 strain; 0.4 nM in the data set with DENV-1 strain TC974 #666; 30 nM in the data set with DENV-4 strain H241; 3.9 nM with DENV-3 strain H87; 0.22 nM with DENV-2 strain 16681. For the same compound, the CC50 at 3 days in data set [1] (setting [2]) is greater than 2500 nM; in data set [1] (setting [3]), greater than 2500 nM; in data set [1] (setting [4]), greater than 2500 nM; in data set [1] (setting [5]), greater than 2400 nM. This compound yielded a 50% cytotoxic concentration (CC50) with Vero cells of 2600 nM.
